The values that follow come from patent publication US20220154296A1, “USE OF ANTI-PD-1 ANTIBODY IN PREPARATION OF MEDICAMENT FOR TREATING SOLID TUMORS” (Shanghai Junshi Biosciences Co., Ltd., priority 2019, published 2022).

One series deals with CT-26 cells. In words: Inhibitory effect on tumor growth in CT-26 cell-transplanted B-hPD-1 mice. The class given is in vivo. As for the experimental part:
CT-26 cells were seeded subcutaneously on the right side of hPD-1 humanized female mice at a concentration of 2.5×10^5 cells/0.1 mL, and the mice were randomly grouped by tumor volume when tumors grew to about 93 mm^3 with 7 mice per group, for a total of 4 groups:
G1: Anti-KLH hIgG4 (1 mg/kg) negative control group;
G3: palbociclib (100 mg/kg);
The experiment was ended 11 days after the first administration. Tumor volume and body weight of mice were measured and recorded twice a week. At the end of the experiment, animals were euthanized and tumor growth inhibition (TGITv%) was calculated.

Series [1] has as its system chemotherapy-refractory ESCC. The following applies: chemotherapy-refractory ESCC patients in China; cited from earlier work.

For `CC(=O)c1c(C)c2cnc(Nc3ccc(N4CCNCC4)cn3)nc2n(C2CCCC2)c1=O` [palbociclib, reference compound], in the series on CT-26 cells (11 days after the first administration, toripalimab 1 mg/kg i.p., palbociclib 100 mg/kg orally), the “TGI (%)” value came to 44.8%. In the series on CT-26 cells (mean ± standard error, toripalimab 1 mg/kg i.p. twice a week, palbociclib 100 mg/kg orally once a day, 7 mice per group), the “Tumor volume 11 days after the first administration” value was found to be 1550 ± 189 mm^3.

B1: SHR-1210: anti-PD-1 antibody SHR-1210, in clinical stage (antibody, chains of the INN, looked up, V domains shown)
VH: EVQLVESGGGLVQPGGSLRLSCAASGFTFSSYMMSWVRQAPGKGLEWVATISGGGANTYYPDSVKGRFTISRDNAKNSLYLQMNSLRAEDTAVYYCARQLYYFDYWGQGTTVTVSS
VL: DIQMTQSPSSLSASVGDRVTITCLASQTIGTWLTWYQQKPGKAPKLLIYTATSLADGVPSRFSGSGSGTDFTLTISSLQPEDFATYYCQQVYSIPWTFGGGTKVEIK
As to B1, in series [1], the Anti-tumor activity result is recorded as “effective anti-tumor activity” and the Safety result is recorded as “controllable safety”.
